The values below come from article PMC12655659, “Population Pharmacokinetics of Radotinib in Healthy Volunteers and Patients with Chronic Myeloid Leukemia” (Pharmaceuticals, 2025).

Where two headings read alike, the source gives them in different places.

The test system of data set [1] is patients newly diagnosed with Ph+ CML-CP. Details: method as in PMID 28939746. As to conditions: by 12 months, cited from earlier work.
On the set-up of data set [2]: method as in ref 24 = [24]; 24. Kim J. Kang M. Lee Y. Yoo S. Han J. Cho D.J. Lee G.Y. Kim N.Y. Jiang Q. Lee J. Pharmacokinetic characteristics of radotinib assessed in Asian patients with chronic myeloid leukemia Proceedings of. As to conditions: patients with CML-CP, cited from earlier work.
A short description of data set [3]: Population pharmacokinetic model (nonlinear mixed-effects modeling) of radotinib plasma concentrations in healthy volunteers and patients with CML-CP. It is filed as in vivo, human. As to conditions: for half-life: human, plasma, oral, read-out: terminal half-life (t1/2), population estimate (converted). The procedure:
Two clinical PK studies of radotinib were performed in healthy volunteers and patients with CML-CP. The two studies were approved by the institutional review board (IRB) of Severance Hospital and Peking University People’s Hospital (IRB numbers 4-2024-0489 and 2018PHA053, respectively) and were conducted in accordance with the Declaration of Helsinki and the International Council for Harmonization Good Clinical Practice (ICH-GCP) guidelines. All participants provided written informed consent prior to any study-related procedures. The studies were registered at ClinicalTrials.gov (identifiers: NCT06461078 and NCT03722420). The present population PK study was performed using pooled data from two clinical studies.
The first study (NCT06461078) included healthy male adult volunteers aged 19 to 55 years, weighing 55 kg or heavier, with a body mass index (BMI) between 18.5 kg/m^2 and 27.0 kg/m^2. Individuals with a history of clinically significant psychiatric or comorbid conditions such as severe hepatic impairment, severe renal impartment, long QT syndrome; a history of gastrointestinal disorders or surgeries that may have affected the absorption of radotinib; or suspected symptoms of acute illness at the time of screening were excluded. Also excluded were individuals with concomitant medications or foods that may have interfered with the study outcomes as well as those with excessive consumption of caffeine, alcohol or tobacco. Individuals were also ineligible if they had participated in other clinical trials within 180 days, donated whole blood within 60 days or blood components within 30 days or received a blood transfusion within 30 days prior to the administration of radotinib. Study participants received a single oral dose of 400 mg radotinib under fasting conditions. Serial blood samples were collected from forearm veins of participants pre-dose and at 0.5, 1, 2, 3, 4, 5, 6, 8, 10, 12, 18, 24, 32 and 48 h post-dose.
The second study (NCT03722420) included patients aged 18 years or older with a confirmed diagnosis of Ph+ CML-CP within last 6 months, typical BCR-ABL1 transcript type and normal organ function. Patients with a T315I mutation in the BCR-ABL1 gene; a history of radiotherapy, interferon or other targeted anti-leukemic therapies; or clinically significant comorbidities were excluded. Patients were also ineligible if they had participated in other investigational studies within the past 3 months or were taking therapeutic coumarin derivatives; a moderate or strong CYP3A4 inhibitor or inducer; or medications that may have prolonged the QT interval. Study participants were orally administered 300 mg radotinib twice daily under fasting conditions. Serial blood samples were obtained from forearm veins pre-dose and at 1, 2, 3, 4, 6, 8 and 12 h post-dose on Days 1 and 14.
All samples were centrifuged to separate plasma and stored at −70 °C until the measurement of plasma concentrations (Cp) of radotinib. The Cp of radotinib in HVs was measured using high-performance liquid chromatography coupled with tandem mass spectrometric detection (HPLC-MS/MS; Prominence HPLC/UFLC/UFLCXR, Shimadzu, Kyoto, Japan; QTRAP 6500+, SCIEX, Marlborough, MA, USA). An internal standard was radotinib-d6 dissolved in acetonitrile to produce working solutions. The linearity of the bioanalytical method was assessed using a calibration curve computed by a weighted (1/x^2) linear regression from seven standard concentrations (5, 10, 30, 100, 300, 1000 and 2000 ng/mL). The method was validated using concentrations of 5, 15, 160 and 1600 ng/mL for the lower limit of quantitation (LLOQ) and low- (LQC), medium- (MQC) and high-quality controls (HQC), respectively.
In patients with CML-CP, the Cp of radotinib was quantified using another HPLC–MS/MS system (LC-20ADXR pump, CTO-20AC column oven, CBM-20A Lite controller and DGU-20A5R degasser, Shimadzu, Kyoto, Japan; API 4000, SCIEX, MA, USA). Glipizide in acetonitrile was used as an internal standard. […]

On the set-up of data set [4]: method as in ref 23 = [23]; 23. Lee Y. Kang M. Kim J. Han J. Kim N.Y. Shin J.S. Park M.S. Kim C.O. Jin B.H. Choi M.K. Clinical pharmacokinetic characteristics and the effect of food on radotinib in healthy volunteers Proceedings. As to conditions: healthy volunteers; cited from earlier work.
A short description of data set [5]: Preliminary pharmacokinetic assessment in patients with CML-CP. It is filed as in vivo. The settings on record: human, plasma, oral, 300 mg twice daily, obtained by doubling the preliminary value of AUC0–12h, read-out: AUC0–24h, previously estimated.
Another data set concerns patients with CML-CP. Details: method as in PMID 24705186. The settings on record: 400 mg twice daily; 77 patients; at 12 months; cited from earlier work.
The conditions of data set [6]: cited from earlier work.

Consider `Cc1ccc(NC(=O)c2ccc(CN3CCN(C)CC3)cc2)cc1Nc1nccc(-c2cccnc2)n1` [imatinib], for which, in data set [1] (once-daily 400 mg, 20 of 66 patients), the “patients achieving major molecular response (MMR)” value is 30%.

As for `Cc1cn(-c2cc(NC(=O)c3ccc(C)c(Nc4nccc(-c5cnccn5)n4)c3)cc(C(F)(F)F)c2)cn1` [radotinib], in data set [2] (300 mg twice daily), the “Cmax, preliminarily assessed value” is given as 1595 (1143–2393) ng/mL and the “tmax, preliminarily assessed value” is on record as 2.5 (2.0–3.8) h. Further, the “t1/2, preliminary value” in data set [2] is 25.4 h. In data set [3] (bootstrap of 1000 replicates), the “CL/F, bootstrap estimate median (95% CI)” value is recorded as 23.2 (20.0–26.5) L/h; the “MTT, bootstrap estimate median (95% CI)” value was 1.86 (1.43–2.27) h; the “N, bootstrap estimate median (95% CI)” value was 6.34 (4.46–10.6); the “Q/F, bootstrap estimate median (95% CI)” value is on record as 126 (88.9–185) L/h. Besides, in data set [3] (bootstrap of 1000 replicates), the “Vc/F age effect, bootstrap estimate median (95% CI)” value was −0.0127 (−0.0258–−0.003); the “Vc/F, bootstrap estimate median (95% CI)” value was 395 (281–526) L; the “Vp/F, bootstrap estimate median (95% CI)” value is recorded as 529 (398–733) L; the “ka, bootstrap estimate median (95% CI)” value is listed as 1.56 (1.07–3.14) h^−1. In addition, in data set [3] (bootstrap of 1000 replicates), the “σproportional, bootstrap estimate” value was 20.0%; the “ωCL/F, bootstrap estimate median (95% CI)” value is 0.379 (0.301–0.459); the “ωIOV, bootstrap estimate median (95% CI)” value is listed as 0.669 (0.494–0.829). In data set [3] (final population PK model), the “CL/F slower in CML-CP patients compared with HVs” value worked out at 39.2%; the “MTT (mean transit time), population estimate” value is 1.88 h; the “N (number of transit compartments), population estimate” value is 6.58; the “estimated slope of negative linear effect of age on Vc/F” value is given as −0.0129 per year. Also, in data set [3] (final population PK model), the “ka (first-order absorption rate constant), population estimate” value is 1.59 h⁻¹; the “negative linear relationship of age with Vc/F” value is −0.0129 L per year; the “total V/F (summation of Vc/F and Vp/F)” value was found to be 902 L; the “σproportional (proportional residual error), population estimate” value is 20.0%. Also, in data set [3] (final population PK model), the “ωCL/F (interindividual variability of apparent clearance), population estimate” value was 0.389. The “CL/F, population estimate in healthy volunteers” value in data set [3] (final population PK model, HVs) is 37.9 L/h. Also, in data set [3] (final population PK model, linear, age − 31), the “Vc/F age effect (slope), population estimate” value was −0.0129. Also, in data set [3] (final population PK model, on Vc/F and Vp/F), the “ωIOV (interoccasion variability), population estimate” value is on record as 0.698. Also, in data set [3] (final population PK model, typical patient with CML-CP), the “CL/F (apparent clearance), population estimate” value is listed as 23.0 L/h. In data set [3] (healthy volunteers), the “terminal half-life (t1/2), population estimate” value is listed as 18.2 h. For the same compound, the half-life in data set [3] (300 mg, patients with CML-CP) is 1730 min. The half-life in data set [3] (male, 400 mg, healthy volunteers) is 1050 min. In addition, in data set [4], the “V/F, preliminary value based on NCA” value was 1315 L and the “t1/2, preliminary value” was 17.5 h. Moreover, the AUC(0-t) in data set [5] was 24000 ng·h/mL. The “patients achieving major molecular response (MMR)” value in data set [1] (300 mg twice daily, 37 of 69 patients) was 54%. Further, in the data set with patients with CML-CP, the “patients achieving major cytogenetic response (MCyR)” value is 65% and the “patients attaining complete cytogenetic response (CCyR)” value is 47%.

With `Cc1cn(-c2cc(NC(=O)c3ccc(C)c(Nc4nccc(-c5cccnc5)n4)c3)cc(C(F)(F)F)c2)cn1` [nilotinib], in data set [6] (400 mg once daily), the “target Ctrough in terms of favorable molecular responses” value is given as 500 ng/mL. For the same compound, the t1/2 in data set [6] is on record as 16 h.
